# Source: patent publication EP0012729A1, “Therapeutic compositions containing as active compound a substituted acetic acid or its salt” ("IBIS" ISTITUTO BIOCHIMICO SPERIMENTALE S.p.A., priority 1978, dated 1980)
# System: Wistar rats
# Assay: Choleretic activity in the rat, bile fistula method
# Type: in vivo
# Conditions: for Peak choleresis time of appearance / Peak choleresis % increase / Duration index: 200 mg/kg p.o. (dose given for 1620 only); for Peak choleresis % increase: increase over controls as percentage of base choleresis; for Duration index: time for halving the maximum choleresis increase; for Flow: 200 mg/kg p.o.; for ml of bile flow ± s.e.: second series
# Excerpt: It is known that the primary effect of a choleretic agent is to increase the bile flow and the quantity of solid substances excreted with the bile. A good choleretic must provide this effect in a sufficiently intense and prolonged manner. In addition, as in the case of all drugs, it must have low acute toxicity and good general tolerability, but in particular must be free from toxic effects on the organ on which it is required to act, i.e. the liver, whether this is in a normal or pathological state. The analysis of the new product in comparison with the best known products for the same therapeutic use has therefore been focused on these aspects. The choleretic activity of the new product has been determined in the rat by using the bile fistula method. Wistar rats of both sexes and having a weight of between 180 and 240 g were used.
# The animals, which were kept fasting for 12 hours but with free access to water, were narcotised by ethyl urethane in a dose of 1 g/kg by intra peritoneal or intramuscular injection.
# After binding the animals to the retention bed, a median laparatomy was carried out, and when the bile duct had been isolated a cannula needle was inserted into it. A polythene tube was then inserted into those ani mals which were to receive the products intraduodenally, after which a su ture was carried out on the abdominal wall, and the bile was allowed to discharge for 30 minutes after inserting the cannula in the bile duct, so as to allow the discharge to become normal. The bile was then collec ted for one hour.
# Having determined the volume of bile discharged during this first hour of collection (base volume), the products under examination were administered at the predetermined doses and by the predetermined methods. The bile excreted by the individual animals was then collected over each hour for a further six hours.
# During the experiments, the animals were kept at ambient temperature of about 22°C, and at regular intervals of two hours received 10 ml/kg of physiological solution s.c.
# The liquids were administered at a temperature of 37°C.
# The bile flow and cholesterol excretion were determined on those bile fractions excreted by the animals over each hour starting from the base hour until the end of the experiment
# The dry residue (R.So) was determined on the bile fraction excreted during the base hour and on the total bile fractions excreted during the sub sequent hours. For practical reasons, the determination of the dry residue and of the cholesterol (carried out by the Sperry & Webb method) were carried out on the pool of bile excreted by the entire group of animals subjected to the same treatment instead of on the bile fractions excreted by the individual animals (which was sometimes insufficient for determining the cholesterol).
# In compiling the graphs, the differences between the choleresis in the treated animals and that in the controls was calculated over the considered time intervals, and expressed as a percentage of the base choleresis. For this calculation, the following formula was used: [formula] where Cn and C' represent the choleresis (in ml/kg/h for the bile flow, and in mg/kg/h for the dry residue) determined over the considered time interval for the group of treated animals and the group of controls respectively. Cb and C'b represent the base choleresis in the group of treated animals and group of controls respectively.
# This index was calculated as the time for halving the maximum choleresis increase recorded under their effect.
Molecule,Peak choleresis time of appearance [st hour],Peak choleresis % increase [%],Duration index,Flow (0 (base hour)),Flow (1h),Flow (2h),Flow (3h),Flow (4h),Flow (5h),Flow (6h),other results
CCC(C(=O)O)C1(O)CCC(c2ccccc2)CC1 (stereo not drawn) [α-(1-hydroxy--4-phenylcyclohexyl)butyric acid],1,105,180',"2,70±0,25 ml/kg/h","5,60±0,51 ml/kg/h","5,42±0,47 ml/kg/h","4,63±0,28 ml/kg/h","3,68±0,18 ml/kg/h","3,05±0,12 ml/kg/h","2,70±0,17 ml/kg/h","ml of bile flow ± s.e. (oral by gastric probe 50 mg/kg, 0 (base values)): 2,8±0,22 ml; ml of bile flow ± s.e. (oral by gastric probe 50 mg/kg, 1 h): 3,2±0,11 ml; ml of bile flow ± s.e. (oral by gastric probe 50 mg/kg, 2 h): 3,0±0,12 ml; ml of bile flow ± s.e. (oral by gastric probe 50 mg/kg, 3 h): 2,9±0,10 ml; ml of bile flow ± s.e. (oral by gastric probe 50 mg/kg, 4 h): 2,8±0,12 ml; ml of bile flow ± s.e. (oral by gastric probe 50 mg/kg, 5 h): 2,5±0,10 ml; ml of bile flow ± s.e. (oral by gastric probe 50 mg/kg, 6 h): 2,0±0,11 ml; ml of bile flow ± s.e. (oral by gastric probe 100 mg/kg, 0 (base values)): 2,6±0,17 ml; ml of bile flow ± s.e. (oral by gastric probe 100 mg/kg, 1 h): 3,7±0,13 ml; ml of bile flow ± s.e. (oral by gastric probe 100 mg/kg, 2 h): 3,6±0,14 ml; ml of bile flow ± s.e. (oral by gastric probe 100 mg/kg, 3 h): 3,4±0,11 ml; ml of bile flow ± s.e. (oral by gastric probe 100 mg/kg, 4 h): 3,0±0,11 ml; ml of bile flow ± s.e. (oral by gastric probe 100 mg/kg, 5 h): 2,9±0,13 ml; ml of bile flow ± s.e. (oral by gastric probe 100 mg/kg, 6 h): 2,1±0,13 ml"
dihydroxybutylether [Dihydroxydibutyl-ether],1,49,45',"3,36±0,19 ml/kg/h","5,10±0,23 ml/kg/h","3,79±0,18 ml/kg/h","3,08±0,15 ml/kg/h","2,68±0,15 ml/kg/h","1,97±0,05 ml/kg/h","1,77±0,11 ml/kg/h",–
